Here are results for seven compounds from ChEMBL document CHEMBL1137022, “The Ssk1p response regulator and Chk1p histidine kinase mutants of Candida albicans are hypersensitive to fluconazole and voriconazole” (Antimicrob Agents Chemother, 2007).

The test system of series [1] is Candida albicans. Kind of series: Fungistatic activity against Candida albicans CHK21 after 24 to 48 hrs by broth microdilution assay. The format is functional.
Series [2] relates to Candida albicans. As to the kind of experiment: Fungistatic activity against Candida albicans SSK21 after 24 to 48 hrs by broth microdilution assay. The class given is functional. (In broth dilution the organism is exposed to a series of concentrations in liquid medium.)
For series [3], the system named is Candida albicans. Kind of series: Fungicidal activity against Candida albicans SSK23 assessed as reduction in cell viability at MIC of SSK21/CHK21 after 24 hrs. The format is functional, organism-based.
Series [4] concerns Candida albicans. As to the kind of experiment: Fungistatic activity against wild type Candida albicans CAF2-1 after 24 to 48 hrs by broth microdilution assay. The format is functional.
Series [5] concerns Candida albicans. Kind of series: Fungicidal activity against Candida albicans CHK23 assessed as reduction in cell viability at MIC of SSK21/CHK21 after 24 hrs. The class given is functional, organism-based.
In series [6] the test system is Candida albicans. As to the kind of experiment: Fungistatic activity against Candida albicans CHK23 after 24 to 48 hrs by broth microdilution assay. The format is functional.
Series [7] relates to Candida albicans. Kind of series: Fungicidal activity against Candida albicans SSK21 assessed as reduction in cell viability at MIC after 24 hrs. The format is functional, organism-based.
In series [8] the test system is Candida albicans. As to the kind of experiment: Fungicidal activity against wild type Candida albicans CAF2-1 assessed as reduction in cell viability at MIC of SSK21/CHK21 after 24 hrs. The format is functional, organism-based.
Series [9] relates to Candida albicans. Kind of series: Fungicidal activity against Candida albicans CHK21 assessed as reduction in cell viability at MIC after 24 hrs. The class given is functional, organism-based.
In series [10] the test system is Candida albicans. As to the kind of experiment: Fungistatic activity against Candida albicans SSK23 after 24 to 48 hrs by broth microdilution assay. The format is functional.
The subject of series [11] is Candida albicans. As to the kind of experiment: Fungicidal activity against Candida albicans SSK21 assessed as reduction in cell viability at 4 times MIC after 24 hrs. The class given is functional, organism-based.
In series [12] the test system is Candida albicans. As to the kind of experiment: Fungicidal activity against Candida albicans SSK23 assessed as reduction in cell viability at 4 times MIC of SSK21/CHK21 after 24 hrs. The class given is functional, organism-based.
The subject of series [13] is Candida albicans. Kind of series: Ratio of MIC for Candida albicans CHK21 to MIC for Candida albicans SSK21. The format is functional.
Series [14] concerns Candida albicans. Kind of series: Fungicidal activity against Candida albicans CHK23 assessed as reduction in cell viability at 4 times MIC of SSK21/CHK21 after 24 hrs. The format is functional, organism-based.
Series [15] relates to Candida albicans. Kind of series: Fungicidal activity against wild type Candida albicans CAF2-1 assessed as reduction in cell viability at 4 times MIC of SSK21/CHK21 after 24 hrs. The class given is functional, organism-based.
Series [16] relates to Candida albicans. As to the kind of experiment: Fungicidal activity against Candida albicans CHK21 assessed as reduction in cell viability at 4 times MIC after 24 hrs. The format is functional, organism-based.
The subject of series [17] is Candida albicans. As to the kind of experiment: Fungistatic activity against Candida albicans SKN7 mutant after 24 to 48 hrs by broth microdilution assay. The format is functional, organism-based.
Series [18] deals with Candida albicans. As to the kind of experiment: Fungistatic activity against Candida albicans SLN1 HK mutant after 24 to 48 hrs by broth microdilution assay. The format is functional, organism-based.
Series [19] deals with Candida albicans. Kind of series: Drug uptake in Candida albicans SSK21 at 3.6 ng/ml after 1 hrs by liquid scintillation counting relative to wild type Candida albicans CAF2-1. The format is ADME, organism-based.

Values after ≈ are worked out from the molar mass of the structure shown. Active and inactive are the calls of the source. The rule behind the calls is not given here.

With `CC(=O)N1CCN(c2ccc(OCC3COC(Cn4ccnc4)(c4ccc(Cl)cc4Cl)O3)cc2)CC1` (configuration not stated), the result in series [1] and in series [2] was Active.

Consider `CC[C@H](C)C[C@H](C)CCCCCCCCC(=O)N[C@H]1C[C@@H](O)[C@@H](NCCN)NC(=O)[C@@H]2[C@@H](O)CCN2C(=O)[C@H]([C@H](O)CCN)NC(=O)[C@H]([C@H](O)[C@@H](O)c2ccc(O)cc2)NC(=O)[C@@H]2C[C@@H](O)CN2C(=O)[C@H]([C@@H](C)O)NC1=O`, for which the outcome in [1] and in series [2] was Active.

Regarding `C[C@@H]1[C@H](O)[C@@H](C)/C=C/C=C/C=C/C=C/C=C/C=C/C=C/[C@H](O[C@@H]2O[C@H](C)[C@@H](O)[C@H](N)[C@@H]2O)C[C@@H]2O[C@](O)(C[C@@H](O)C[C@@H](O)[C@H](O)CC[C@@H](O)C[C@@H](O)CC(=O)O[C@H]1C)C[C@H](O)[C@H]2C(=O)O`, the outcome in series [1] and in [2] was Active.

On to `Clc1ccc(COC(Cn2ccnc2)c2ccc(Cl)cc2Cl)c(Cl)c1` (configuration not stated), for which the outcome in series [1] and in series [2] was Active.

In general, MIC refers to the lowest concentration that inhibits growth of the organism. A higher MIC goes with weaker potency. Regarding `OC(Cn1cncn1)(Cn1cncn1)c1ccc(F)cc1F` [FLUCONAZOLE], the result in series [3], in [5], in [7], in [8] and in series [9] was inactive. For the same compound, the MIC in series [1] worked out at 1 µg/mL (≈ 3.27 µM); in [4], 16 µg/mL (≈ 52.2 µM); in series [2] it was 0.032 µg/mL (≈ 0.104 µM); in [6], 16 µg/mL (≈ 52.2 µM); in [10], 0.25 µg/mL (≈ 0.816 µM). For the same compound, the outcome in series [11], in series [12], in series [14], in [15] and in series [16] was Active. The Ratio in series [13] is 30.

`C[C@@H](c1ncncc1F)[C@](O)(Cn1cncn1)c1ccc(F)cc1F` [VORICONAZOLE]: the outcome in series [17], in series [11], in series [12], in series [18], in series [14] and in series [15] was Active. Moreover, the result in [16] was Active. Further, the result in [3], in [5], in series [7], in series [8] and in series [9] was inactive. Moreover, the minimum inhibitory concentration (MIC) in series [1] turned out to be 0.015 µg/mL (≈ 0.0429 µM); in series [4], 0.5 µg/mL (≈ 1.43 µM); in series [2], 0.008 µg/mL (≈ 0.0229 µM); in series [6], 1 µg/mL (≈ 2.86 µM); in series [10], 0.064 µg/mL (≈ 0.183 µM).

On to `[3H]OC(Cn1cncn1)(Cn1cncn1)c1ccc(F)cc1F` [[3H]FLUCONAZOLE], for which the “fold change (FC)” value in series [19] amounted to 2.
